Measurements reported in patent publication US11136409B2, “Compositions and methods for identification, assessment, prevention, and treatment of AML using USP10 biomarkers and modulators” (Dana-Farber Cancer Institute, Inc., priority 2016, dated 2021).
Like-named read-outs stand apart in the source and are kept apart here.

Legend:
MOLM14 cells = assay: Immunoblot of FLT3, Beclin-1, AKT, ERK1/ERK2 in MOLM14 cells; format: cell-based, human
Excerpt: (§1) The following antibodies were purchased from Cell Signaling Technology (Danvers, Mass.): total AKT (rabbit, #9272) and total p44/42 MAPK (Erk1/2) (3A7) (mouse, #9107) were used at 1:1000 dilution. Anti-GAPDH (D16H-11) XP (R) (rabbit mAb, #5174) was used at 1:1000 dilution. Beclin-1 (rabbit, #3738) was used at 1:1000. USP10 (D7A5) (rabbit, #8501) was used at 1:1000 dilution. P53 (rabbit, #9282) was used at 1:1000 dilution. β-tubulin (rabbit, #2146s) was used 1:1000.
(§2) FLT3/Flk-2 (C-20) (sc-479) and Ub (P4D1) (mouse, sc-8017) were purchased from Santa Cruz Biotechnology, Inc. (Dallas, Tex.) and used at 1:1000 dilution for immunoblotting. Anti-pTyr (mouse, clone 4G10) was purchased from Upstate Biotechnology (Lake Placid, N.Y.) and was used at 1:1000 dilution. Anti-HAUSP/USP7 antibody (rabbit, ab4080) and anti-ubiquitin antibody (rabbit, ab7780) were purchased from Abcam (Cambridge, Mass.) and used at 1:1000 dilution.
(§3) Protein lysate preparation, immunoblotting, and immunoprecipitation were carried out as previously described in Weisberg et al. (2002) Cancer Cell 1:433-443.

USP7 = USP7 (Homo sapiens, UniProt Q93009); assay: MALDI TOF DUB assay with diubiquitin substrate; format: biochemical; details: diubiquitin as substrate, same assay as USP10
Chain of USP7 (Q93009 whole entry): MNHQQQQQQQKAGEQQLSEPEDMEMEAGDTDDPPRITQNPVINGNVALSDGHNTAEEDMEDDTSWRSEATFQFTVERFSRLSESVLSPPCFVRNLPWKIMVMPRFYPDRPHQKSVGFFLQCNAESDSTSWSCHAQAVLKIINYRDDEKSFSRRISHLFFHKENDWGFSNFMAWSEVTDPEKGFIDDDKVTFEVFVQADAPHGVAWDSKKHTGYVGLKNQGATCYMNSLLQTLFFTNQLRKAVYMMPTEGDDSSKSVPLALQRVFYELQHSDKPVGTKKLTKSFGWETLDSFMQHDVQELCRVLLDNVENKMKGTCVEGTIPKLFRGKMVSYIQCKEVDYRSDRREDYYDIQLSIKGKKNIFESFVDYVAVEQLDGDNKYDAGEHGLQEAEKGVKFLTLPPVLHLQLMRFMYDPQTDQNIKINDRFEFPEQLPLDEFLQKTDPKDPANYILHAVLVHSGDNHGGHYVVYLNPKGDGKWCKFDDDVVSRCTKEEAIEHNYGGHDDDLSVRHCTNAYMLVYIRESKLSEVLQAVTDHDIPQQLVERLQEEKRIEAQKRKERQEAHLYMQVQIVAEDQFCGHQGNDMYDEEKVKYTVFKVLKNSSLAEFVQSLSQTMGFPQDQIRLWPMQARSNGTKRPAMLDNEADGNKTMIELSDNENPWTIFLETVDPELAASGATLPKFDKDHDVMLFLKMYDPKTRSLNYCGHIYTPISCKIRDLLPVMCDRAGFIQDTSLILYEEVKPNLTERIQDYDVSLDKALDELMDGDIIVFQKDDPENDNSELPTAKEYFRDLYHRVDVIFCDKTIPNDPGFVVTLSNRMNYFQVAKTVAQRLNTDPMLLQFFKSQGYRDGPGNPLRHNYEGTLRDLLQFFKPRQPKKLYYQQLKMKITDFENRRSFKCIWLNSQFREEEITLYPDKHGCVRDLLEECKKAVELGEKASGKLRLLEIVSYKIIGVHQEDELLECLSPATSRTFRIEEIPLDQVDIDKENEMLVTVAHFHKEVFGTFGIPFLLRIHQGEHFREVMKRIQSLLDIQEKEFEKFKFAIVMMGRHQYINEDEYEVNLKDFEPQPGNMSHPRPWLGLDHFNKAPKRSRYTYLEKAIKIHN
Description: Thirty-one human DUBs were freshly diluted in the reaction buffer (40 mM Tris-HCl, pH 7.6, 5 mM DTT, 0.005% BSA) at different concentrations (see Table 10). […] 0.48 μl of di-ubiquitin topoisomers were added to the reaction mixture to initiate the reaction. The reaction was sealed and incubated for 30 min at room temperature and stopped by adding TFA to a final concentration of 2% (v/v).
(§4) Mass spectrometry data was acquired on an UltrafleXtreme MALDI-TOF mass spectrometer (Bruker Daltonics) with Compass 1.3 control and processing software. The sample carrier was taught before each analysis to optimize and centre laser shooting. […] Samples were analysed in automatic mode (AutoXecute, Bruker Daltonics). […] An amount of 3,500 shots were summed up in “random walk” and with “large” smartbeam laser focus. Spectra were automatically calibrated on the ^15N-Ub m/z and processed using smoothing (Savitzky-Golay algorithm) and baseline subtraction (‘TopHat’) for reproducible peak annotation on non-resolved isotope distributions: one cycle, 0.2 m/z for the width. For area calculation, the complete isotopic distribution was taken into account. An in-house made script was used to report—^15N and mono-ubiquitin areas; plotting of graphs, calculation of standard deviation and coefficient of variation (%) were processed in Microsoft Excel.

[1] = system: mutant FLT3-expressing cells; assay: Dynamic BH3 profiling (mitochondrial priming); format: cell-based, human; details: cytochrome c release in response to Bim peptide, 14 h; compared to wt or null FLT3-expressing cells
Description: To determine drug-induced changes in mitochondrial priming, dynamic BH3 profiling was performed as previously described in Montero et al. (2015) Cell 160:977-989 and Pan et al. (2014) Cancer Discov. 4:362-375. Briefly, 0.4×10^6 cells/well were exposed to drug treatment for 14 hours. At the end of incubation time, cells were washed in PBS, pelleted at 500×g for 5 min, and resuspended in MEB buffer. Fifteen μl of cell suspension was added to each well of 384 well plate containing 15 μl of MEB buffer containing 20 μg/mL digitonin and BH3 peptides at twice their final concentration, and the mixture was incubated for 60 min at 26° C. to allow mitochondrial depolarization. Peptide exposure was then terminated by adding 10 μl 4% formaldehyde in PBS for 15 min, followed by neutralization with N2 buffer (1.7M Tris, 1.25M glycine, pH 9.1) for 10 min. In order to determine cytochrome C levels, anti-cytochrome C clone 6H2.B4 conjugated to Alexa Fluor® 647 (BD Bioscience) was diluted 1:50 in 10× staining buffer (10% BSA, 2% Tween-20 and 0.02% sodium azide in PBS) and 10 μl of this antibody-containing buffer was added to each well for a final dilution of 1:400. Cells were stained overnight at 4° C. in dark and data were acquired on a BD LSRFortessa™ analyzer (BD Biosciences). Priming change (Δ) was calculated by comparing cytochrome C abundance in treated cells to that of DMSO-treated control cells.

Ba/F3-D835Y cells = assay: Immunoblot of FLT3 in Ba/F3-D835Y cells; format: cell-based, murine
Excerpt: as §2, §3

MOLM13 and MOLM14 cells = assay: p53 levels in AML cell lines (immunoblot); format: cell-based, human
Excerpt: as §1, §3

Ba/F3-FLT3-ITD cells = assay: Immunoblot of FLT3 / Beclin-1 in Ba/F3-FLT3-ITD cells; format: cell-based, murine; details: for FLT3 protein levels: immunoblot, Ba/F3-FLT3-ITD cells
Excerpt: as §1, §2, §3

[2] = system: panel of 33 recombinant DUB enzymes; details: 10 μM compound; diubiquitin as substrate
Description: […] […] The enzymes were pre-incubated with the compounds for 30 min at room temperature at 10 μM final concentration. 0.48 μl of di-ubiquitin topoisomers were added to the reaction mixture to initiate the reaction. The reaction was sealed and incubated for 30 min at room temperature and stopped by adding TFA to a final concentration of 2% (v/v).
as §4

[3] = system: FLT3-ITD-positive AML primagraft cells; assay: FLT3 immunoblot in ex vivo-treated AML primagraft cells; format: cell-based, human; details: 21 hours of treatment; concentration of 20
Description: as §3

[4] = system: AML primagraft (D835Y+, FLT3-ITD+) cells; assay: Treatment of mutant FLT3-expressing AML primagraft cells ex vivo; format: cell-based, human; details: read-out: IC50 (+/−S.D.) AML primagraft (D835Y+, FLT3-ITD+)
Description: All animal studies were performed according to protocols approved by the Dana-Farber Cancer Institute's Institutional Animal Care and Use Committee. […] Mice were sacrificed on day 21 of treatment. Bone marrow was flushed from mouse femurs, and spleens and livers were dissected and preserved first in formalin, followed 24 hours later by preservation in 70% ethanol. […] All AML primagraft samples used in the studies described herein were obtained through the Public Repository of Xenografts (proxe.org).
The CellTiter-Glo® assay (Promega, Madison, Wis.) was used for proliferation studies and carried out according to manufacturer instructions. Cell viability is reported as percentage of control (untreated) cells, and error bars represent the standard error of the mean for each data point.

[5] = system: wt FLT3-expressing leukemia cell lines; assay: FLT3 protein in wt FLT3-expressing leukemia cell lines (immunoblot); format: cell-based, human; details: approximately 23 hours of treatment
Description: as §3

| Structure (SMILES) | Protein levels of Beclin-1 and FLT3 (MOLM14 cells; 20 μM) | Expression of AKT and ERK1/ERK2 downstream of FLT3 (MOLM14 cells; approximately 23 hours of treatment) | IC50 (USP7) | Mitochondrial priming for apoptosis [1] | FLT3 protein levels (Ba/F3-D835Y cells) | p53 levels (MOLM13 and MOLM14 cells) | Protein levels of Beclin-1 and FLT3 (Ba/F3-FLT3-ITD cells; 20 μM) | FLT3 protein levels (Ba/F3-FLT3-ITD cells) | Inhibition of DUBs other than USP10 [2] | FLT3 levels via immunoblotting [3] | IC50 ([4]; Homo sapiens, 24 hr assay) | IC50 ([4]; Homo sapiens, 72 hr assay) | FLT3 protein [5] | IC50 ([4]; 24 hr assay) | IC50 ([4]; 72 hr assay) |
| --- | --- | --- | --- | --- | --- | --- | --- | --- | --- | --- | --- | --- | --- | --- | --- |
| CN(CCCNC(=O)c1ccc2nc3c(c(Cl)c2c1)CCCC3)Cc1ccccc1 [HBX19818, reference compound] | strongly decreased | unchanged | 57 µM | increased priming | more modest loss of FLT3 protein | did not result in a decrease of p53 levels | strongly decreased | loss of FLT3 protein | ≤ 20% | no trace of FLT3 | 9.8 µM | 1.9 µM | little to no impact | – | – |
| O=C(NCCCN1CCN(Cc2ccccc2)CC1)c1ccc2nc3c(c(Cl)c2c1)CCCC3 [C598-0563] | – | – | – | – | – | – | – | induce loss of FLT3 at similar concentrations | – | – | – | – | – | 12.2 µM | 2.8 µM |
| CCCN(CCC)CCCNC(=O)c1ccc2c(Cl)c3c(nc2c1)CCCC3 [C598-0466] | – | – | – | – | – | – | – | induces FLT3 degradation at lower concentrations | – | – | – | – | – | 4.1 µM | 0.6 µM |
| CCN(CCCNC(=O)c1ccc2nc3c(c(Cl)c2c1)CCC3)Cc1ccccc1 [C673-0105] | – | – | – | more strongly | – | – | – | – | – | – | – | – | – | 8.5 µM | 3.1 µM |
